Laboratory results reported in patent US10344054B2, “Angiotensin-1-receptor antagonists” (Ferring B.V., priority 2016, dated 2019).
Starred links: 1 amine or outer side, 2 acyl side, 3 side chain; linkers in the order of their positions; H or OH if unused. Non-standard residues stand in square brackets, D forms with d. Residues, ends and D or L forms follow the SMILES beside them. X1 = O=C(CN(C[C@H](O)[C@@H](O)[C@H](O)[C@H](O)CO)[*:1])[*:2]; dPhe(2-Cl) = N[C@H](Cc1ccccc1Cl)C(=O)O; Chg = N[C@H](C(=O)O)C1CCCCC1

How the values were obtained:
hAT1R [1] = molecular target: T1, hAT1R (Homo sapiens, UniProt P30556); experiment: FLIPR calcium flux assay, Part II: antagonist activity against Angiotensin II; assay type: cell-based; settings: for Emax: read-out: hAT1R Antagonist Efficacy Antag (%) Ave; for IC50: read-out: hAT1R Antagonist IC50 Ave; for hAT1R Antagonist Efficacy Antag (%) Ave: Angiotensin II 10 nM final concentration
T1 sequence (P30556 1-359): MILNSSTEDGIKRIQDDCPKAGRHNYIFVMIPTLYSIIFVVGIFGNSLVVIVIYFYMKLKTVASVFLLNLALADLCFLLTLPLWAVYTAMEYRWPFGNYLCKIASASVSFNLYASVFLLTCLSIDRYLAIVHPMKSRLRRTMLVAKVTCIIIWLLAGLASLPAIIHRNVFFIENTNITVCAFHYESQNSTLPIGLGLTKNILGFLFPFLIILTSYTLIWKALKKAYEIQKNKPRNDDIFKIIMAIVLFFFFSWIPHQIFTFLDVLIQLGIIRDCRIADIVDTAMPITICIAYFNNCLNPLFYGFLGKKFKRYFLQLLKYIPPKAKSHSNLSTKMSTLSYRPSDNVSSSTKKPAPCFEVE
Experimental: (§1) AT1 receptor (AT1R) agonists increase intracellular flux of calcium ions. AT1R antagonists can reduce the agonist effect. […] Compounds were first tested for agonism (Part I) followed by addition of the AT1R agonist angiotensin II to test for antagonist activity (Part II). This assay used a stable hAT1R expressing cell line (ChanTest hAT1R; ChanTest Corp A628). Intracellular flux of calcium in response to agonist was measured through real-time measurement of fluorescence induced through the interaction of Ca2+ (released from intracellular stores) and calcium-sensitive dye. In Part I, cells were exposed to varying concentrations of test compounds and immediately measured for agonist activity (EC50 and Efficacy).
(§2) ChanTest hAT1R stable cells were maintained in Ham's F12 containing 10% (v/v) heat inactivated fetal bovine serum (FBS-HI), 4 mM Glutamax, 1% NEAA, 50 ng/mL plasmocin, 400 μg/mL G418 at 37° C. under 5% CO2 in a humidified atmosphere.
(§3) For FLIPR assay, ChanTest hAT1R cells were trypsinized with 6 ml of Trypsin EDTA solution and harvested in phenol-red free DMEM containing 10% FBS-HI, 4 mM Glutamax and counted, spun down and resuspended in the same medium. The cell suspension was added to the wells of 384-well black PDL clear bottom plates at 2.5×10^4 cells/well, 20 μl/well.
(§4) Preparation of Loading Buffer:
(§5) • Loading Buffer: 1 vial of Calcium 5 Bulk Assay reagent was dissolved in 100 ml of 1× HBSS-20 mM Hepes buffer. • Probenecid was resuspended at 1 M in 1 M NaOH. Once the probenecid had gone into solution, an equal volume of H2O was added to make a solution of 500 mM followed by a 1:100 dilution in the Loading Buffer for a working concentration of 5 mM. The pH was adjusted to 7.4 using 1 M NaOH. Loading the Cells with Loading Buffer • Cell plates were removed from the incubator and 25 μl of Loading Buffer containing probenecid (5 mM) added to each well. • Plates were incubated for 1 hour at 37° C. under 5% CO2 in a humidified atmosphere. […] The remaining steps of the assay were carried forward by FLIPR Tetra. A baseline reading was taken at 1-second (s) intervals for 10 s followed by the addition of 5 μl of 10× compounds. The compound-induced fluorescence signal was then measured for 3 minutes with readings taken at 1-s intervals. • The cell plate was removed from the FLIPR and set aside for an additional 17 minutes. • The cell plate was then transferred back to the FLIPR Tetra, along with the 384 well Angiotensin II agonist dilution plate. A baseline reading was taken at 1-second (s) intervals for 10 seconds, followed by the addition of 5.5 μl of 10× Angiotensin II agonist. The agonist-induced fluorescence signal was then measured for 3 minutes with readings taken at 1-s intervals. • Overall, each well in the FLIPR assay was composed of the following components in a total volume of 55.5 μl:
(§6) Time-course results from the FLIPR Calcium 5 assay were expressed as relative fluorescence light units (RFU). The maximum minus minimum values (Max−Min) were used to quantify the strength of the signal. Mean RFU were calculated from replicate values and plotted on the y-axis versus compound concentration on a logarithmic scale on the x-axis, and a single-binding site, four parameter concentration response model: (MIN+((MAX−MIN)/(1+((EC50/x)^Hill)))), was used to perform non-linear regression analysis, generating concentration response curves. Reported parameters included agonist potency EC50 (the concentration causing half-maximal agonist response), antagonist potency IC50 (the concentration causing half-maximal inhibition of the agonist response for antagonist compounds) and efficacy (% MPE: percent of the maximal possible effect).

hAT1R [2] = molecular target: T1, hAT1R; experiment: FLIPR calcium flux assay, Part I: agonist activity; assay type: cell-based; settings: ChanTest hAT1R stable cells; % MPE, percent of the maximal possible effect; read-out: hAT1R Agonist Efficacy Agonist (%) Ave
Experimental: as §1, §2, §3, §4, §5, §6

Emax (hAT1R [1]) | IC50 (hAT1R [1]) | Emax (hAT1R [2]) | Structure (SMILES)
100% | 14.5 nM | 8% | CNCC(=O)N[C@@H](CCCNC(=N)N)C(=O)N[C@H](C(=O)N[C@@H](Cc1ccc(O)cc1)C(=O)N[C@H](C(=O)N[C@@H](Cc1c[nH]cn1)C(=O)N1CCC[C@H]1C(=O)N[C@H](Cc1ccccc1C)C(=O)O)C1CCCCC1)C(C)C [Compound 27, Sar-Arg-Val-Tyr-Chg-His-Pro-(D-Phe(2-Me))—OH] (HELM PEPTIDE1{[Sar].R.V.Y.[O=C([C@@H](N[*:1])C1CCCCC1)[*:2]].H.P.[Cc1ccccc1C[C@@H](N[*:1])C(=O)O]}$$$$V2.0)
99% | 12.2 nM | 5% | CNCC(=O)N[C@@H](CCCNC(=N)N)C(=O)N[C@H](C(=O)N[C@@H](Cc1ccc(O)c(Cl)c1)C(=O)N[C@H](C(=O)N[C@@H](Cc1c[nH]cn1)C(=O)N1CCC[C@H]1C(=O)N[C@H](Cc1ccccc1Cl)C(=O)O)C(C)C)C(C)C [Compound 28, Sar-Arg-Val-Tyr(3-Cl)-Val-His-Pro-(D-Phe(2-Cl))—OH] (HELM PEPTIDE1{[Sar].R.V.[O=C([C@H](Cc1ccc(O)c(Cl)c1)N[*:1])[*:2]].V.H.P.[O=C(O)[C@@H](Cc1ccccc1Cl)N[*:1]]}$$$$V2.0)
99% | 19.5 nM | 6% | CC(C)[C@H](NC(=O)[C@H](CCCNC(=N)N)NC(=O)CNC[C@H](O)[C@@H](O)[C@H](O)[C@H](O)CO)C(=O)N[C@@H](Cc1ccc(O)cc1)C(=O)N[C@H](C(=O)N[C@@H](Cc1c[nH]cn1)C(=O)N1CCC[C@H]1C(=O)N[C@H](Cc1ccccc1Cl)C(=O)O)C(C)C [Compound 29, Glac-Arg-Val-Tyr-Val-His-Pro-(D-Phe(2-Cl))—OH] (HELM PEPTIDE1{[O=C(CNC[C@H](O)[C@@H](O)[C@H](O)[C@H](O)CO)[*:2]].R.V.Y.V.H.P.[O=C(O)[C@@H](Cc1ccccc1Cl)N[*:1]]}$$$$V2.0)
100% | 20.5 nM | 12% | CNCC(=O)N[C@@H](CCCNC(=N)N)C(=O)N[C@H](C(=O)N[C@@H](Cc1cccc(O)c1)C(=O)N[C@H](C(=O)N[C@@H](Cc1c[nH]cn1)C(=O)N1CCC[C@H]1C(=O)N[C@H](Cc1ccccc1Cl)C(=O)O)C(C)C)C(C)C [Compound 30, Sar-Arg-Val-(m-Tyr)-Val-His-Pro-(D-Phe(2-Cl))—OH] (HELM PEPTIDE1{[Sar].R.V.[O=C([C@H](Cc1cccc(O)c1)N[*:1])[*:2]].V.H.P.[O=C(O)[C@@H](Cc1ccccc1Cl)N[*:1]]}$$$$V2.0)
99% | 15.7 nM | 6% | CC(C)[C@H](NC(=O)[C@H](CCCNC(=N)N)NC(=O)CNC[C@H](O)[C@@H](O)[C@H](O)[C@H](O)CO)C(=O)N[C@@H](Cc1ccc(O)cc1)C(=O)N[C@H](C(=O)N[C@@H](Cc1c[nH]cn1)C(=O)N1CCC[C@H]1C(=O)N[C@H](Cc1ccccc1Cl)C(=O)O)C1CCCCC1 [Compound 31, Glac-Arg-Val-Tyr-Chg-His-Pro-(D-Phe(2-Cl))—OH] (H-[X1]RVY[Chg]HP[dPhe(2-Cl)]-OH)
99% | 24.1 nM | 5% | CNCC(=O)N[C@@H](CCCNC(=N)N)C(=O)N[C@H](C(=O)N[C@@H](Cc1ccc(O)c(O)c1)C(=O)N[C@H](C(=O)N[C@@H](Cc1c[nH]cn1)C(=O)N1CCC[C@H]1C(=O)N[C@H](Cc1ccccc1Cl)C(=O)O)C(C)C)C(C)C [Compound 32, Sar-Arg-Val-DOPA-Val-His-Pro-(D-Phe(2-Cl))—OH] (HELM PEPTIDE1{[Sar].R.V.[O=C([C@H](Cc1ccc(O)c(O)c1)N[*:1])[*:2]].V.H.P.[O=C(O)[C@@H](Cc1ccccc1Cl)N[*:1]]}$$$$V2.0)

Structure (SMILES) | Emax (hAT1R [1]) | IC50 (hAT1R [1]) | Emax (hAT1R [2])
CNCC(=O)N[C@@H](CCCNC(=N)N)C(=O)N[C@H](C(=O)N[C@@H](Cc1ccc(N)cc1)C(=O)N[C@H](C(=O)N[C@@H](Cc1c[nH]cn1)C(=O)N1CCC[C@H]1C(=O)N[C@H](Cc1ccccc1Cl)C(=O)O)C(C)C)C(C)C [Compound 33, Sar-Arg-Val-Aph-Val-His-Pro-(D-Phe(2-Cl))—OH] (HELM PEPTIDE1{[Sar].R.V.[Nc1ccc(C[C@H](N[*:1])C(=O)[*:2])cc1].V.H.P.[O=C(O)[C@@H](Cc1ccccc1Cl)N[*:1]]}$$$$V2.0) | 100% | 17.1 nM | 3%
